In ChEMBL document CHEMBL5108012, “Discovery of 2,5-diphenyl-1,3,4-thiadiazole derivatives as HDAC inhibitors with DNA binding affinity” (Eur J Med Chem, 2022):
The source made the active and inactive calls. The rule behind the calls is not given here.

Legend:
HCT-116 [1] = experiment: Antiproliferative activity against human HCT-116 cells after 48 hrs by CCK-8 assay; format: functional, cell-based; conditions: HCT-116, 48 h
HCT-116 [2] = experiment: Induction of apoptosis in human HCT-116 cells assessed as increase in cleaved caspase-3 expression at 0.17 to 1.5 uM incubated for 48 hrs by Western blot analysis; format: functional, cell-based; conditions: dose 0.17-1.5 µM
DNA = experiment: Binding affinity to pBR322 DNA (unknown origin) at 10 to 50 uM after 30 mins by Agarose gel electrophoresis; format: nucleic-acid assay; conditions: dose 10-50 µM
Calf thymus DNA = experiment: Binding affinity to calf thymus DNA at 50 uM incubated for 30 mins and measured by UV-vis absorption spectroscopy; format: nucleic-acid assay; conditions: Bos taurus
HEL = experiment: Antiproliferative activity against human HEL cells after 48 hrs by CCK-8 assay; format: functional, cell-based
MC-38 [3] = experiment: Antitumor activity against mouse MC38 cells xenografted in C57BL/6 mouse assessed as tumor growth inhibition at 50 mg/kg, ip administered every 2 days for 16 consecutive days; format: functional; conditions: MC-38, 384 h, time 16 day, read-out: TGI
MC-38 [4] = experiment: Antitumor activity against mouse MC38 cells xenografted in C57BL/6 mouse assessed as necrosis in tumor at 50 to 100 mg/kg, ip administered every 2 days for 16 consecutive days measured by H and E staining method; format: functional, organism-based; conditions: dose 50-100 mg/kg, time 16.0 day
K562 = experiment: Antiproliferative activity against human K562 cells after 48 hrs by CCK-8 assay; format: functional, cell-based; conditions: K562, 48 h
Histone deacetylase 8 = target: T1, Histone deacetylase 8 (Homo sapiens, UniProt Q9BY41); experiment: Inhibition of HDAC8 in human HeLa cell nuclear extract using Boc-Lys(Ac)-AMC or Boc-Lys(triflouroacetyl)-AMC as substrate incubated for 30 mins and measured by fluorescence assay; format: cell-free
T1 sequence (Q9BY41 whole entry): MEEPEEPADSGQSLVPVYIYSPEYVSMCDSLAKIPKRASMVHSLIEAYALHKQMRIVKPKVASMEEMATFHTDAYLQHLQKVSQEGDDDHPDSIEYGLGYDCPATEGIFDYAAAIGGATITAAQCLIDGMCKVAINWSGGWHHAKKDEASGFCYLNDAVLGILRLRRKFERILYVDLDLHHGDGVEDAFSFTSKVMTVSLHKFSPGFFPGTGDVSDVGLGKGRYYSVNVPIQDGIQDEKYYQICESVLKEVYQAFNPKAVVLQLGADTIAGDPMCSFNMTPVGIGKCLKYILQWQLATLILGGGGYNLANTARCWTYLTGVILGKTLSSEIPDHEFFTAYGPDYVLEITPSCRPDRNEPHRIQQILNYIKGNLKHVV

HeLa = experiment: Antiproliferative activity against human HeLa cells after 48 hrs by CCK-8 assay; format: functional, cell-based

IC50 (HCT-116 [1]): 470 nM
Activity (DNA): Active
Activity (Calf thymus DNA): Active
IC50 (K562): 910 nM
IC50 (Histone deacetylase 8): 3030 nM
IC50 (HeLa): 780 nM
Structure (SMILES): O=C(CCCCCOc1cccc(-c2nnc(-c3ccccc3)s2)c1)NO
Activity (HCT-116 [2]): Active
IC50 (HEL): 280 nM
inhibition in vivo at 50 mg/kg (MC-38 [3]): 66%
Activity (MC-38 [4]): Active
